Assay results from US7417156B2, “Orally active, antimalarial, anticancer, artemisinin-derived trioxane dimers” (Johns Hopkins University, priority 2002, dated 2008).
Like-named read-outs stand apart in the source and are kept apart here.

Assays:
[1] = test system: chloroquine-sensitive P. falciparum (NF54); assay: Antimalarial activity in vitro, [3H]hypoxanthine incorporation; type: cell-based
60 cell line panel = type: cell-based
CCRF-CEM = assay: NCI 60 cell line panel screen (SRB); type: cell-based, human
HL-60(TB) = assay: NCI 60 cell line panel screen (SRB); type: cell-based, human
K-562 = assay: NCI 60 cell line panel screen (SRB); type: cell-based, human
MOLT-4 = test system: MOLT-4
In short: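 Sulforhodamine B staining of TCA-fixed cellular protein was the read-out, following 48 h compound exposure at 37 °C. Plates were pre-incubated 24 h before dosing, and five concentrations (routinely 10^−4 to 10^−8 molar) were tested in duplicate with time-zero and untreated controls. Values derive from test/control percentage growth relative to time-zero mass.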

A549/ATCC = assay: NCI 60 cell line panel screen (SRB); type: cell-based, human
HOP-92 = assay: NCI 60 cell line panel screen (SRB); type: cell-based, human
NCI-H460 = assay: NCI 60 cell line panel screen (SRB); type: cell-based, human
HCT-15 = assay: NCI 60 cell line panel screen (SRB); type: cell-based, human
KM12 = assay: NCI 60 cell line panel screen (SRB); type: cell-based, human
UACC-257 = assay: NCI 60 cell line panel screen (SRB); type: cell-based, human
OVCAR-3 = assay: NCI 60 cell line panel screen (SRB); type: cell-based, human
ACHN = assay: NCI 60 cell line panel screen (SRB); type: cell-based, human
PC-3 = assay: NCI 60 cell line panel screen (SRB); type: cell-based, human
MCF7 = assay: NCI 60 cell line panel screen (SRB); type: cell-based, human
HS 578T = assay: NCI 60 cell line panel screen (SRB); type: cell-based, human
[2] = mean value over the 60 cell line panel

CC1CCC2C(C)C(CC(O)(CO)CC3OC4OC5(C)CCC6C(C)CCC(C3C)C46OO5)OC3OC4(C)CCC1C32OO4 (centres unmarked) [Compound 5, bis-trioxane vicinal diol]
IC50 [1]: below one nM | antimalarial potency in vitro relative to artemisinin [1]: 10 times | IC50 ([1]; Table I, NF54 strain, read-out: IC50): 0.59 nM | Log10GI50 Delta (60 cell line panel): 2.03 | Log10GI50 Range (60 cell line panel): 3.47 | Log10LC50 Delta (60 cell line panel; 60 cell line panel): 0.37 | Log10LC50 Range (60 cell line panel; 60 cell line panel): 0.47 | Log10TGI50 Delta (60 cell line panel; 60 cell line panel): 3.50 | Log10TGI50 Range (60 cell line panel; 60 cell line panel): 4.00 | growth inhibition and cytotoxicity in words (60 cell line panel; human cancer cell lines in general): strongly inhibitory but not cytotoxic | growth inhibition in words (60 cell line panel; leukemia cell line RPM 1-8226, melanoma cell line SK-MEL-5, renal cancer cell line ACHN): selectively and strongly inhibitory | Log10GI50 MG MID (60 cell line panel; mean over panel): −5.97 | Log10LC50 MG MID (60 cell line panel; [2]): −4.09 log10M | Log10TGI50 MG MID (60 cell line panel; [2]): −4.50 log10M | Log10LC50 (CCRF-CEM; CCRF-CEM (Leukemia), LC50: PG=−50): >−4.00 log10M | Log10TGI50 (CCRF-CEM; CCRF-CEM (Leukemia), TGI: PG=0): >−4.00 log10M | Log10GI50 (CCRF-CEM; Leukemia, CCRF-CEM): −4.71 | Log10LC50 (HL-60(TB); HL-60(TB) (Leukemia), LC50: PG=−50): >−4.00 log10M | Log10GI50 (HL-60(TB); Leukemia, HL-60(TB)): <−8.00 | Log10LC50 (K-562; K-562 (Leukemia), LC50: PG=−50): >−4.00 log10M | Log10TGI50 (K-562; K-562 (Leukemia), TGI: PG=0): >−4.00 log10M | Log10GI50 (K-562; Leukemia, K-562): <−8.00 | concentration for cytotoxicity (percentage growth −50) (MOLT-4): greater than 10^−4 M | Log10GI50 (MOLT-4; Leukemia, MOLT-4): <−8.00 | Log10LC50 (MOLT-4; MOLT-4 (Leukemia), LC50: PG=−50): >−4.00 log10M | Log10TGI50 (MOLT-4; MOLT-4 (Leukemia), TGI: PG=0): >−4.00 log10M | Log10LC50 (A549/ATCC; A549/ATCC (Non-Small Cell Lung Cancer), LC50: PG=−50): −4.11 log10M | Log10TGI50 (A549/ATCC; A549/ATCC (Non-Small Cell Lung Cancer), TGI: PG=0): −4.82 log10M | Log10GI50 (A549/ATCC; Non-Small Cell Lung Cancer, A549/ATCC): −7.59 | Log10LC50 (HOP-92; HOP-92 (Non-Small Cell Lung Cancer), LC50: PG=−50): −4.05 log10M | Log10TGI50 (HOP-92; HOP-92 (Non-Small Cell Lung Cancer), TGI: PG=0): −4.49 log10M | Log10GI50 (HOP-92; Non-Small Cell Lung Cancer, HOP-92): −4.93 | Log10LC50 (NCI-H460; NCI-H460 (Non-Small Cell Lung Cancer), LC50: PG=−50): >−4.00 log10M | Log10TGI50 (NCI-H460; NCI-H460 (Non-Small Cell Lung Cancer), TGI: PG=0): −4.40 log10M | Log10GI50 (NCI-H460; Non-Small Cell Lung Cancer, NCI-H460): −5.02 | Log10GI50 (HCT-15; Colon Cancer, HCT-15): −5.28 | Log10LC50 (HCT-15; HCT-15 (Colon Cancer), LC50: PG=−50): −4.03 log10M | Log10TGI50 (HCT-15; HCT-15 (Colon Cancer), TGI: PG=0): −4.53 log10M | Log10GI50 (KM12; Colon Cancer, KM12): <−8.00 | Log10LC50 (KM12; KM12 (Colon Cancer), LC50: PG=−50): >−4.00 log10M | Log10TGI50 (KM12; KM12 (Colon Cancer), TGI: PG=0): −4.47 log10M | Log10GI50 (UACC-257; Melanoma, UACC-257): <−8.00 | Log10LC50 (UACC-257; UACC-257 (Melanoma), LC50: PG=−50): −4.36 log10M | Log10TGI50 (UACC-257; UACC-257 (Melanoma), TGI: PG=0): −4.90 log10M | Log10LC50 (OVCAR-3; OVCAR-3 (Ovarian Cancer), LC50: PG=−50): >−4.00 log10M | Log10TGI50 (OVCAR-3; OVCAR-3 (Ovarian Cancer), TGI: PG=0): −4.45 log10M | Log10GI50 (OVCAR-3; Ovarian Cancer, OVCAR-3): −5.09 | Log10LC50 (ACHN; ACHN (Renal Cancer), LC50: PG=−50): 4.47 log10M | Log10TGI50 (ACHN; ACHN (Renal Cancer), TGI: PG=0): <−8.00 log10M | Log10GI50 (ACHN; Renal Cancer, ACHN): <−8.00 | Log10LC50 (PC-3; PC-3 (Prostate Cancer), LC50: PG=−50): >−4.00 log10M | Log10TGI50 (PC-3; PC-3 (Prostate Cancer), TGI: PG=0): −4.49 log10M | Log10GI50 (PC-3; Prostate Cancer, PC-3): <−8.00 | Log10GI50 (MCF7; Breast Cancer, MCF7): <−8.00 | Log10LC50 (MCF7; MCF7 (Breast Cancer), LC50: PG=−50): −4.22 log10M | Log10TGI50 (MCF7; MCF7 (Breast Cancer), TGI: PG=0): −4.88 log10M | Log10GI50 (HS 578T; Breast Cancer, HS 578T): −4.72 | Log10LC50 (HS 578T; HS 578T (Breast Cancer), LC50: PG=−50): >−4.00 log10M | Log10TGI50 (HS 578T; HS 578T (Breast Cancer), TGI: PG=0): −4.08 log10M
